# Target: T1, hFXR (Homo sapiens, UniProt Q96RI1)
# T1 construct: expressed in transfected cells; host or cells: CV-1 cells
# T1 sequence (Q96RI1 1-486): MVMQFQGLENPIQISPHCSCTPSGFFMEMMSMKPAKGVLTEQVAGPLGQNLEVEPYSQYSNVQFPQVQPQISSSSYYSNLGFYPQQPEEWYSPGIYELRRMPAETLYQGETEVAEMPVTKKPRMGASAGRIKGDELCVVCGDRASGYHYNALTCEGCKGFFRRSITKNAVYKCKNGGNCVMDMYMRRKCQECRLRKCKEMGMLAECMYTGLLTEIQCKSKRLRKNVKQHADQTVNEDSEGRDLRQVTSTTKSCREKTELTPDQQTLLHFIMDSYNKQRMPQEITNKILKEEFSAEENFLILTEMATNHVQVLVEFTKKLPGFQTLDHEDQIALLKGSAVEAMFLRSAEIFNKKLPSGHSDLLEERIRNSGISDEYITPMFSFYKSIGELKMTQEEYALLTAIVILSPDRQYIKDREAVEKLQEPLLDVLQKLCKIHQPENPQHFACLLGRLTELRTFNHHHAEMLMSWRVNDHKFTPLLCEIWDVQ
# T1 sequence (P19793 1-462 partner): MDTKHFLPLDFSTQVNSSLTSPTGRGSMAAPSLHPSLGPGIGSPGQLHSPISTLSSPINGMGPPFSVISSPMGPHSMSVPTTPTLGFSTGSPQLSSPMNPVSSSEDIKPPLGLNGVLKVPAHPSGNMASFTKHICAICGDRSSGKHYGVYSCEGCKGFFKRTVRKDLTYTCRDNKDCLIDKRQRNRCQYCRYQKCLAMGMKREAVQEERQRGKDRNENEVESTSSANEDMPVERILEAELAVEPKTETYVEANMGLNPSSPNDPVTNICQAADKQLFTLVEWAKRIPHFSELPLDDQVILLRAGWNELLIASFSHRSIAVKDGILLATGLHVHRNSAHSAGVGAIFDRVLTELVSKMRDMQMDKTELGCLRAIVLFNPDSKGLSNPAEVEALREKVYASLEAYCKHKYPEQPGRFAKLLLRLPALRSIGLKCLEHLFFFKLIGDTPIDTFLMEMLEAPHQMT
# Assay: In Vitro FXR Assay (TK): TK-ECRE-luc reporter in transfected CV-1 cells
# Assay type: cell-based
# Conditions: 18 hrs, luminescence, maximum efficacy of <25% of the Fexarmine control classified as '+'
# Procedure: CV-1 cells were seeded at a density of 2,000,000 cells in a T175 flask with DMEM+10% charcoal double-stripped FBS and incubated at 37° C. in 5% CO2 for 18 h (O/N).
# After 18 h of incubation, the medium in the T175 flask was changed with fresh DMEM+10% charcoal super-stripped serum. In a polypropylene tube, 2500 μL OptiMEM (Life Technologies, Cat #31985-062) was combined with expression plasmids for hFXR, hRXR, TK-ECRE-luc and pCMX-YFP. The tube was then briefly vortexed and incubated at room temperature for 5 minutes. Transfection reagent (X-tremeGENE HP from Roche, Cat #06 366 236 001) was added to the OptiMEM/plasmid mixture vortexed and incubated at room temperature for 20 minutes. Following incubation, the transfection reagent/DNA mixture complex was added to cells in the T175 flask and the cells were incubated at 37° C. in 5% CO2 for 18 h (O/N).
# Compounds were serially diluted in DMSO and added to transfected CV-1 cells. The cells were then incubated for 18 hrs. The next day cells were lysed and examined for luminescence.
row,SMILES,EC50 [nM]
1,"COc1ccc([C@H]2CC[C@H](CN(c3cccc(-c4cnn(C5CC5)c4)c3)C(=O)[C@H]3CC[C@H](OC(=O)NCc4ncc[nH]4)CC3)CC2)cc1C [Compound 4.13, trans-4-((3-(1-Cyclopropyl-1H-pyrazol-4-yl)phenyl)((trans-4-(4-methoxy-3-methylphenyl)cyclohexyl)methyl)carbamoyl)cyclohexyl ((1H-imidazol-2-yl)methyl)carbamate]",≤ 250
2,"COc1ccc([C@H]2CC[C@H](CN(c3cccc(-c4cnn(C5CC5)c4)c3)C(=O)[C@H]3CC[C@H](OC(=O)NCCN(C)C(=O)OC(C)(C)C)CC3)CC2)cc1C [Compound 4.14, tert-Butyl (2-((((trans-4-((3-(1-cyclopropyl-1H-pyrazol-4-yl)phenyl)((trans-4-(4-methoxy-3-methylphenyl)cyclohexyl)methyl)carbamoyl)cyclohexyl)oxy)carbonyl)amino)ethyl)(methyl)carbamate]",≤ 250
3,"COc1ccc([C@H]2CC[C@H](CN(c3cccc(-c4cnn(C5CC5)c4)c3)C(=O)[C@H]3CC[C@H](OC(=O)NCc4c[nH]cn4)CC3)CC2)cc1C [Compound 4.15, trans-4-((3-(1-Cyclopropyl-1H-pyrazol-4-yl)phenyl)((trans-4-(4-methoxy-3-methylphenyl)cyclohexyl)methyl)carbamoyl)cyclohexyl ((1H-imidazol-4-yl)methyl)carbamate]",≤ 250
4,"COc1ccc([C@H]2CC[C@H](CN(c3cc(-c4cnn(C5CC5)c4)ccn3)C(=O)[C@H]3CC[C@H](OC(=O)NCCO)CC3)CC2)cc1C [Compound 4.19, trans-4-((4-(1-Cyclopropyl-1H-pyrazol-4-yl)pyridin-2-yl)((trans-4-(4-methoxy-3-methylphenyl)cyclohexyl)methyl)carbamoyl)cyclohexyl (2-hydroxyethyl)carbamate]",≤ 250
5,"COc1ccc([C@H]2CC[C@H](CN(c3cccc(-c4cnn(C5CC5)c4)c3)C(=O)[C@H]3CC[C@H](OC(=O)NCCCCCN(C)C)CC3)CC2)cc1C [Compound 4.21, trans-4-((3-(1-Cyclopropyl-1H-pyrazol-4-yl)phenyl)((trans-4-(4-methoxy-3-methylphenyl)cyclohexyl)methyl)carbamoyl)cyclohexyl (5-(dimethylamino)pentyl)carbamate]",≤ 250
6,"CN(C)c1ccc([C@H]2CC[C@H](CN(c3cccc(-c4coc(C5CC5)n4)c3)C(=O)[C@H]3CC[C@H](OC(=O)NCCO)CC3)CC2)cn1 [Compound 4.22, trans-4-((3-(2-Cyclopropyloxazol-4-yl)phenyl)((trans-4-(6-(dimethylamino)pyridine-3-yl)cyclohexyl)methyl)carbamoyl)cyclohexyl (2-hydroxyethyl)carbamate]",≤ 250
7,"CN(C)c1ccc(C23CCC(CN(c4cccc(-c5coc(C6CC6)n5)c4)C(=O)[C@H]4CC[C@H](OC(=O)NCCO)CC4)(CC2)CC3)cn1 [Compound 4.23, 4-((3-(2-Cyclopropyloxazol-4-yl)phenyl)((4-(6-(dimethylamino)pyridin-3-yl)bicyclo[2.2.2]octan-1-yl)methyl)carbamoyl)cyclohexyl trans-(2-hydroxyethyl)carbamate]",≤ 250
8,"COc1ccc([C@H]2CC[C@H](CN(c3cc(-c4coc(C5CC5)n4)ccn3)C(=O)[C@H]3CC[C@H](OC(=O)NCCO)CC3)CC2)nc1C [Compound 4.24, trans-4-((4-(2-Cyclopropyloxazol-4-yl)pyridine-2-yl)((trans-4-(5-methoxy-6-methylpyridin-2-yl)cyclohexyl)methyl)carbamoyl)cyclohexyl (2-hydroxyethyl)carbamate]",≤ 250
9,"CCNC(=O)O[C@H]1CC[C@H](C(=O)N(C[C@H]2CC[C@H](c3ccc(OC)c(C#N)c3)CC2)c2cc(-c3cnn(C(C)C)c3)ccn2)CC1 [Compound 5, trans-4-(((trans-4-(3-Cyano-4-methoxyphenyl)cyclohexyl)methyl)(4-(1-isopropyl-1H-pyrazol-4-yl)pyridin-2-yl)carbamoyl)cyclohexyl ethylcarbamate]",≤ 250
10,"CNC(=O)O[C@H]1CC[C@H](C(=O)N(C[C@H]2CC[C@H](c3ccc(OC)c(C)c3)CC2)c2cc(-c3cnc(C4CC4)s3)ccn2)CC1 [Compound 5.01, trans-4-((4-(2-Cyclopropylthiazol-5-yl)pyridin-2-yl)((trans-4-(4-methoxy-3-methylphenyl)cyclohexyl)methyl)carbamoyl)cyclohexyl methylcarbamate]",≤ 250

# Continued, values first:
row,EC50 [nM],SMILES
1,≤ 250,"COc1ccc([C@H]2CC[C@H](CN(c3cccc(-c4cnn(C5CC5)c4)c3)C(=O)[C@H]3CC[C@H](OC(=O)NCCN)CC3)CC2)cc1C [Compound 4.16, trans-4-((3-(1-Cyclopropyl-1H-pyrazol-4-yl)phenyl)((trans-4-(4-methoxy-3-methylphenyl)cyclohexyl)methyl)carbamoyl)cyclohexyl (2-aminoethyl)carbamate]"
2,≤ 250,"COc1ccc([C@H]2CC[C@H](CN(c3cccc(-c4cnn(C5CC5)c4)c3)C(=O)[C@H]3CC[C@H](OC(=O)NC4CN(C(=O)OC(C)(C)C)C4)CC3)CC2)cc1C [Compound 4.17, tert-Butyl 3-((((trans-4-((3-(1-cyclopropyl-1H-pyrazol-4-yl)phenyl)((trans-4-(4-methoxy-3-methylphenyl)cyclohexyl)methyl)carbamoyl)cyclohexyl)oxy)carbonyl)amino)azetidine-1-carboxylate]"
3,≤ 250,"COc1ccc([C@H]2CC[C@H](CN(c3cccc(-c4cnn(C5CC5)c4)c3)C(=O)[C@H]3CC[C@H](OC(=O)NC4CNC4)CC3)CC2)cc1C [Compound 4.18, trans-4-((3-(1-Cyclopropyl-1H-pyrazol-4-yl)phenyl)((trans-4-(4-methoxy-3-methylphenyl)cyclohexyl)methyl)carbamoyl)cyclohexyl azetidin-3-ylcarbamate]"
4,≤ 250,"COc1ccc([C@H]2CC[C@H](CN(c3cccc(-c4cnn(C5CC5)c4)c3)C(=O)[C@H]3CC[C@H](OC(=O)NCCCCN(C)C)CC3)CC2)cc1C [Compound 4.20, trans-4-((3-(1-Cyclopropyl-1H-pyrazol-4-yl)phenyl)((trans-4-(4-methoxy-3-methylphenyl)cyclohexyl)methyl)carbamoyl)cyclohexyl (4-(dimethylamino)butyl)carbamate]"
5,≤ 250,"COc1ccc([C@H]2CC[C@H](CN(c3cccc(-c4cnn(C5CC5)c4)c3)C(=O)[C@H]3CC[C@H](OC(=O)N4CC(O)C4)CC3)CC2)cc1C [Compound 4.25, trans-4-((3-(1-Cyclopropyl-1H-pyrazol-4-yl)phenyl)((trans-4-(4-methoxy-3-methylphenyl)cyclohexyl)methyl)carbamoyl)cyclohexyl 3-hydroxyazetidine-1-carboxylate]"
6,≤ 250,"COc1ccc([C@H]2CC[C@H](CN(c3cccc(-c4cnn(C5CC5)c4)c3)C(=O)[C@H]3CC[C@H](OC(=O)N4CC(O)C4)CC3)CC2)nc1C [Compound 4.26, trans-4-((3-(1-Cyclopropyl-1H-pyrazol-4-yl)phenyl)((trans-4-(5-methoxy-6-methylpyridin-2-yl)cyclohexyl)methyl)carbamoyl)cyclohexyl 3-hydroxyazetidine-1-carboxylate]"
7,≤ 250,"COc1ccc([C@H]2CC[C@H](CN(c3cc(-c4cnn(C5CC5)c4)ccn3)C(=O)[C@H]3CC[C@H](OC(=O)N4CC(O)C4)CC3)CC2)cc1C [Compound 4.27, trans-4-((4-(1-Cyclopropyl-1H-pyrazol-4-yl)pyridin-2-yl)((trans-4-(4-methoxy-3-methylphenyl)cyclohexyl)methyl)carbamoyl)cyclohexyl 3-hydroxyazetidine-1-carboxylate]"
8,≤ 250,"COc1ccc([C@H]2CC[C@H](CN(c3cccc(-c4cnn(C5CC5)c4)c3)C(=O)[C@H]3CC[C@H](OC(=O)N4CC(CSC)C4)CC3)CC2)cc1C [Compound 4.28, trans-4-((3-(1-Cyclopropyl-1H-pyrazol-4-yl)phenyl)((trans-4-(4-methoxy-3-methylphenyl)cyclohexyl)methyl)carbamoyl)cyclohexyl 3-((methylthio)methyl)azetidine-1-carboxylate]"
